According to patent EP1431294A1, “VASCULAR WALL-SELECTIVE ACAT INHIBITOR” (Kowa Company Ltd., priority 2001, dated 2003):

Tests used:
[1] = Oral absorption test in rats under a fed condition (plasma concentration); type: in vivo; details: rat, 30 mg/kg
ACAT [2] = molecular target: T1, ACAT (Mus musculus, UniProt Q61263); experiment: ACAT inhibitory activity test in J774 cells (anti-foaming action); type: cell-based; details: for IC50: J774 cells, 25-hydroxycholesterol 10 µg/mL, 18 hours, cholesterol ester per protein
T1 construct: J774 cells or HepG2 cells were sown on a 24-well plate; endogenous in cells; host or cells: J774 cells
T1 sequence (Q61263 1-540): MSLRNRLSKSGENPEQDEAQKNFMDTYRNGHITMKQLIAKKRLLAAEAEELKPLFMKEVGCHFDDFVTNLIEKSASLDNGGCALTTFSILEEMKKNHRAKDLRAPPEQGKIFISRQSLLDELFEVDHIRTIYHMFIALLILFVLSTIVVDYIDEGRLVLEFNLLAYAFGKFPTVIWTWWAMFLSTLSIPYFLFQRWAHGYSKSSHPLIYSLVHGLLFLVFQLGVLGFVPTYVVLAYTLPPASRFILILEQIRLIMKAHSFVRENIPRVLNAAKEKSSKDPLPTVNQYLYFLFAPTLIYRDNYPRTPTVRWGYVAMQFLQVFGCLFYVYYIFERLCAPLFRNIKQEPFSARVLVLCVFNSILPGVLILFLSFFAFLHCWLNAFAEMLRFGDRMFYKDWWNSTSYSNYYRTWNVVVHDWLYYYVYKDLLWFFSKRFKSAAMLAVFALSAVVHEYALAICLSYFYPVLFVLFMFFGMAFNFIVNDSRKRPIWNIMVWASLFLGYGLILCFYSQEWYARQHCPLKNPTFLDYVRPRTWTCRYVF
Method: (§1) J774 cells or HepG2 cells were sown on a 24-well plate and incubation was carried out at 37°C for 24 hours in a 5% CO2 incubator using a Dulbecco's modified Eagle's medium for J774 cells and an Eagle's minimum essential medium for HepG2 cells (where both media contained 10% of fetal bovine serum). […] The medium was taken out, washed with PBS twice, extracted with 1.5 mL of hexane-isopropanol (3:2) and concentrated to dryness. The extract was dissolved in isopropanol containing 0.2 mL of 10% Triton X-100 and then total cholesterol (TC) and free cholesterol (FC) were determined by a Cholesterol E Test Wako (Wako Pure Chemical) and a Free Cholesterol E Test Wako (Wako Pure Chemical), respectively. The residue of the cell after extraction was solubilized with 0.25 mL of 2N NaOH at 37°C for 30 minutes and protein was determined by a BCA Protein Assay Reagent (Pierce). From the differencebetween TC and FC, amount of cholesterolester per protein was calculated and, from the comparative calculation with the control, IC50 value was determined.

ACAT [3] = experiment: ACAT inhibitory activity test in HepG2 cells; type: cell-based; details: 25-hydroxycholesterol 10 µg/mL, 18 hours, cholesterol ester per protein
Method: as §1

[4] = Oral absorption test in rats under a fed condition (plasma concentration); type: in vivo; details: compared with the compound of Example 1; rats, 30 mg/kg
Method: A solution of the compound of the present invention (dissolved in a mixture of water : PEG 400 = 1:4) or a suspension in 0.5% methyl cellulose (MC) was compulsorily administered per os at. the dose of 30 mg/kg to three rats under a fed condition. Blood after the administration was periodically collected and its concentration in plasma was measured.
The organic layer (upper layer) was collected, the solvent was evaporated in a nitrogen stream, the residue was dissolved in 0.2 mL of a mobile phase (refer to the following) and 80 µL thereof were measured under the following analytical conditions.
The organic layer was collected, the solvent was evaporated in a nitrogen stream, the residue was dissolved in 0.2 mL of a mobile phase (refer to the following) and 80 µL thereof were measured under the following condition for high-performance liquid chromatography. Condition for detection: • (Detector: Single-stage quadrupole mass spectrometer • Ionization method: Atmospheric pressure chemical ionization method • Temperature of nebulizer: 475°C • Corona voltage: 3 kV • Monitoring ion: m/z 569 (hydrogen addition ion of the compound of Example 78), 549 (hydrogen addition ion of the compound of Example 85)) Condition for separation: • (Column: Symmetry RP8 manufactured by Waters (3.0 mmφ × 150 mm) • Temperature of column: 45°C • Mobile phase: a solution where 0.1% ammonium formate (pH 4)/methanol/acetonitrile are mixed in […] • Flow rate: 0.8 mL/min)
To 150 µL of plasma were added a 0.1 mol/L aqueous solution of sodium hydroxide and 0.2 mL of an analogous compound (500 ng/mL of the compound of Example 28 of the Japanese Patent Application No. 8/158,743, i.e. 8-(benzimidazol-2-ylthio)-N-(2,6-diisopropylphenyl)octanamide as an internal standard, stirred and extracted with 6 mL of an isopropanol/hexane (5: 95) solution. The organic layer was collected, the solvent was evaporated in a nitrogen stream, the residue was dissolved in 0.2 mL of a mobile phase (refer to the following) and 80 µL thereof were measured under the following condition for high-performance liquid chromatography.

SMILES	AUC(0-inf) ([1]; medium PEG 400:DMSO = 5:1)	Cmax ([1]; medium PEG 400:DMSO = 5:1)	IC50 (ACAT [2])	AUC(0-inf) ([1]; medium 0.05N (Aq HCl))	Cmax ([1]; medium 0.05N (Aq HCl))	IC50 (ACAT [3])	macrophage selectivity (IC50 (HepG2)/IC50 (J774)) (ACAT [2])	improving effect in oral absorption in terms of Cmax value [4]
CCOCCOc1cc(C(C)C)c(NC(=O)CN2CCN(CCSc3nc4ccccc4o3)CC2)c(C(C)C)c1 [Example 78, 2-[4-[2-(benzoxazol-2-ylthio)ethyl]piperazin-1-yl]-N-[2,6-diisopropyl-4-(2-ethoxyethyl)oxyphenyl]acetamide]	29.8 ng·h/mL	14.8 ng/mL	14 nM					
CC(C)c1cccc(C(C)C)c1NC(=O)CN1CCN(CCSc2nc3ccccc3o2)CC1 [Example 1, 2-[4-[2-(benzoxazol-2-ylthio)ethyl]piperazin-1-yl]-N-(2,6-diisopropylphenyl) acetamide]				295 ng·h/mL	110 ng/mL			
COc1cc(C(C)C)c(NC(=O)CN2CCN(CCSc3nc4ccccc4o3)CC2)c(C(C)C)c1 [Example 75, 2-[4-[2-(benzoxazol-2-ylthio)ethyl]piperazin-1-yl]-N-(2,6-diisopropyl-4-methoxyphenyl)acetamide]			100 nM			10000 nM	not less than 96 fold	
CC(C)c1cc(O)cc(C(C)C)c1NC(=O)CN1CCN(CCSc2nc3ccccc3o2)CC1 [Example 72, 2-[4-[2-(benzoxazol-2-ylthio)ethyl]piperazin-1-yl]-N-(2,6-diisopropyl-4-hydroxyphenyl) acetamide]			130 nM	1100 ng·h/mL	470 ng/mL	780 nM		about 4.3 fold
